According to patent US20070111328A1, “Scintillation proximity assay for the identification of P-glycoprotein modulators” (priority 2005, published 2007):

What was measured:
[1] = target: T1, P-glycoprotein (P-gp) (Homo sapiens, UniProt P08183); assay: SPA saturation binding of [3H]-vinblastine to P-gp (KB-V1 cell membranes); set-up: endogenous in cells; host or cells: KB-V1 cells (multidrug-resistant subclone of KB-3-1, HeLa-derived); sucrose-gradient purified plasma membranes; settings: [3H]-vinblastine 5 to 55 nM, specific binding fitted with Prism; read-out: KD (binding dissociation constant)
T1 sequence (P08183 whole entry): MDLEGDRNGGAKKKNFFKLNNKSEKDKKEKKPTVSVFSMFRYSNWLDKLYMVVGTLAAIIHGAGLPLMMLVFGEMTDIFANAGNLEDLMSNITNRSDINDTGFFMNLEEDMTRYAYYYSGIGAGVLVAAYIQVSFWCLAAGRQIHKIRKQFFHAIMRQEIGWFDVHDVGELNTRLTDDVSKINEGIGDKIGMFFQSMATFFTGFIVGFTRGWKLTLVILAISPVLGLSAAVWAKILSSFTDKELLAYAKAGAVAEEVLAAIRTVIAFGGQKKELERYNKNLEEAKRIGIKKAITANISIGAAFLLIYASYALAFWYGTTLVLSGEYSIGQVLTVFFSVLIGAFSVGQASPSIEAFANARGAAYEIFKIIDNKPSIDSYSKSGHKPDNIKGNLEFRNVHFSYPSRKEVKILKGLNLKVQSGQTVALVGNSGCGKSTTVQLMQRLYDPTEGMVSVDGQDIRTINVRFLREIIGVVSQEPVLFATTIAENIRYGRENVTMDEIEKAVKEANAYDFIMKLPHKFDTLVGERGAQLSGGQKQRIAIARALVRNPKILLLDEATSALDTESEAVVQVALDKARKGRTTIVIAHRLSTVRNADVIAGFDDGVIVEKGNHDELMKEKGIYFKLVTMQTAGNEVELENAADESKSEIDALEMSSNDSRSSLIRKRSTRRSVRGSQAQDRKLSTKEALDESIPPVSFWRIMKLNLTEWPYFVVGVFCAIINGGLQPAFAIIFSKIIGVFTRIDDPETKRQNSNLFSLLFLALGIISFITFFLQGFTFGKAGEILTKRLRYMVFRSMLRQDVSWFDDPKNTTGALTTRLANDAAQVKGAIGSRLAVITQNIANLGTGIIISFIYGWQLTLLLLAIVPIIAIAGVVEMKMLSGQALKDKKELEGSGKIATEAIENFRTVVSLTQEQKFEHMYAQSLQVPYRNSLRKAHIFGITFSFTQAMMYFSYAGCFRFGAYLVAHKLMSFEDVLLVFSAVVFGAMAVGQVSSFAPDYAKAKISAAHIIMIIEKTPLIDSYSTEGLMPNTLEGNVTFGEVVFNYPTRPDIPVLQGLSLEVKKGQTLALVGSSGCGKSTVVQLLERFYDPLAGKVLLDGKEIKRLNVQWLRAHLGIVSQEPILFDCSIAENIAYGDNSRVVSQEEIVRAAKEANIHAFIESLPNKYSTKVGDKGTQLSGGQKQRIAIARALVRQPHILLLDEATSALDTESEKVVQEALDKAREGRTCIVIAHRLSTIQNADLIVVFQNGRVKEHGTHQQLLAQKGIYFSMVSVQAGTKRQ
Protocol: The specific signal values versus the amount of radioligand was fitted to the equation using the Prism software (GraphPad Software Inc, San Diego, Calif.) as the following: [formula] where Bmax is the maximal binding, [L] is a ligand concentration, and KD is the binding dissociation constant. The fitting gave the KD value of 4 nM, which is in agreement with literature data.

[2] = target: T1, P-glycoprotein (P-gp); assay: Scintillation proximity assay (SPA): competition with [3H]vinblastine binding to P-gp in KB-V1 cell membranes; settings: mean of triplicates; for effect of test compound on P-gp specific binding signal: test compound 10 μM final concentration, FIG. 8
Protocol: The samples were incubated for an additional 3 to 24-hours.
The methods described herein are based on the scintillation proximity assay (SPA) technique and its use to detect signal changes in the presence of a test compound. […] The signal should be reduced when the test compound is a P-gp substrate and/or inhibitor because of competition on the binding site or inhibition of the binding.

Molecule | effect of test compound on P-gp specific binding signal [2] | other results
CC[C@]1(O)C[C@@H]2CN(CCc3c([nH]c4ccccc34)[C@@](C(=O)OC)(c3cc4c(cc3OC)N(C)[C@H]3[C@@](O)(C(=O)OC)[C@H](OC(C)=O)[C@]5(CC)C=CCN6CC[C@]43[C@@H]65)C2)C1 [[^3H]-vinblastine] | – | Kd [1]: 4 nM
Cn1c(=O)c2c(ncn2C)n(C)c1=O [caffeine] | no impact on the P-gp signal | –
Ivermectin | – | IC50 ([2]; read-out: IC50 values determined by SPA, inhibition of [3H]vinblastine binding to P-gp, KB-V1 membranes, WGA-Ysi beads, PRISM fit): 362 nM
COc1cccc2c1C(=O)c1c(O)c3c(c(O)c1C2=O)C[C@@](O)(C(=O)CO)C[C@@H]3O[C@H]1C[C@H](N)[C@H](O)[C@H](C)O1 [doxorubicin] | did not appear to interfere with the P-gp signal | –
CN(Cc1cnc2nc(N)nc(N)c2n1)c1ccc(C(=O)N[C@@H](CCC(=O)O)C(=O)O)cc1 [methotrexate] | did not appear to interfere with the P-gp signal | –
